Reference: PubChem BioAssay (NCI)
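Step 1: Grow cells in 96-well plates. Step 2: Expose to compound for 48 hours at 5 concentrations. Step 3: Interpolate endpoints linearly; if unreached, use highest concentration. At the GI50, growth is halved. Definition used: TGI = concentration required for complete inhibition of growth.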

Experiments:
Test in all cases: DTP human tumour cell line panel, 48 h; in the data active means GI50 below about 0.43 µM; inactive means the rest
[1] = tested on: DU-145 prostate
[2] = tested on: HS 578T breast
[3] = tested on: SN12C renal
[4] = tested on: UACC-257 melanoma
[5] = tested on: NCI/ADR-RES ovarian
[6] = tested on: UACC-62 melanoma
[7] = tested on: SNB-75 CNS
[8] = tested on: HCT-15 colon
[9] = tested on: T-47D breast
[10] = tested on: 786-0 renal
[11] = tested on: SR leukemia
[12] = tested on: OVCAR-4 ovarian
[13] = tested on: PC-3 prostate
[14] = tested on: K-562 leukemia
[15] = tested on: KM12 colon
[16] = tested on: A498 renal
[17] = tested on: SF-539 CNS
[18] = tested on: OVCAR-5 ovarian
[19] = tested on: CAKI-1 renal
[20] = tested on: HT29 colon
[21] = tested on: UO-31 renal
[22] = tested on: RXF 393 renal
[23] = tested on: NCI-H460 lung
[24] = tested on: SK-OV-3 ovarian
[25] = tested on: MALME-3M melanoma
[26] = tested on: HOP-62 NSCLC
[27] = tested on: MDA-MB-231 breast
[28] = tested on: MOLT-4 leukemia
[29] = tested on: SF-268 CNS
[30] = tested on: EKVX NSCLC
[31] = tested on: HCT-116 colon
[32] = tested on: HL-60(TB) leukemia
[33] = tested on: MCF7 breast
[34] = tested on: NCI-H522 lung
[35] = tested on: CCRF-CEM leukemia
[36] = tested on: OVCAR-3 ovarian
[37] = tested on: NCI-H23 lung
[38] = tested on: BT-549 breast
[39] = tested on: ACHN renal
[40] = tested on: SK-MEL-2 melanoma
[41] = tested on: U251 CNS
[42] = tested on: OVCAR-8 ovarian
[43] = tested on: SK-MEL-5 melanoma
[44] = tested on: M14 melanoma
[45] = tested on: COLO 205 colon
[46] = tested on: SW-620 colon
[47] = tested on: SF-295 CNS
[48] = tested on: NCI-H226 lung
[49] = tested on: IGROV1 ovarian
[50] = tested on: A549 NSCLC
[51] = tested on: HCC-2998 colon
[52] = tested on: RPMI-8226 leukemia
[53] = tested on: SNB-19 CNS
[54] = tested on: TK-10 renal
[55] = tested on: HOP-92 NSCLC
[56] = tested on: SK-MEL-28 melanoma

COc1cc(/C=C2\CN(S(=O)(=O)c3ccc(C)cc3)C/C(=C\c3cc(CN4CCOCC4)c(O)c(OC)c3)C2=O)cc(CN2CCOCC2)c1O
19.1 µM: TGI [7]
16.4 µM: TGI [6]
40.2 µM: TGI [47]
27.4 µM: TGI [32]
2.52 µM: TGI [23]
22.5 µM: TGI [39]
29.5 µM: TGI [22]
15.5 µM: TGI [3]
active: GI50 [11] 0.342 µM | GI50 [15] 0.377 µM | GI50 [20] 0.346 µM | GI50 [23] 0.337 µM | GI50 [28] 0.321 µM | GI50 [33] 0.394 µM | GI50 [42] 0.323 µM
54.4 µM: TGI [16]
22.8 µM: TGI [49]
71.8 µM: TGI [55]
32.6 µM: TGI [34]
59.4 µM: TGI [10]
59.8 µM: TGI [54]
65.8 µM: TGI [25]
38 µM: TGI [26]
85.8 µM: TGI [48]
81.2 µM: TGI [29]
> 100 µM: TGI [1] | TGI [4] | TGI [5] | TGI [8] | TGI [9] | TGI [11] | TGI [12] | TGI [13] | TGI [14] | TGI [18] | TGI [19] | TGI [20] | TGI [21] | TGI [28] | TGI [31] | TGI [33] | TGI [35] | TGI [36] | TGI [37] | TGI [41] | TGI [42] | TGI [43] | TGI [44] | TGI [45] | TGI [46] | TGI [50] | TGI [52] | TGI [53] | TGI [56]
inactive: GI50 [1] 0.928 µM | GI50 [2] 0.721 µM | GI50 [3] 0.524 µM | GI50 [4] 2.06 µM | GI50 [5] 55 µM | GI50 [6] 0.586 µM | GI50 [7] 0.527 µM | GI50 [8] 1.9 µM | GI50 [9] 51.7 µM | GI50 [10] 17.9 µM | GI50 [12] 4.11 µM | GI50 [13] 1.24 µM | GI50 [14] 0.561 µM | GI50 [16] 12.4 µM | GI50 [17] 7.21 µM | GI50 [18] > 100 µM | GI50 [19] 1.53 µM | GI50 [21] 20.4 µM | GI50 [22] 2.81 µM | GI50 [24] 7.89 µM | GI50 [25] 1.75 µM | GI50 [26] 0.652 µM | GI50 [27] 2.27 µM | GI50 [29] 0.935 µM | GI50 [30] 16.9 µM | GI50 [31] 3.25 µM | GI50 [32] 0.853 µM | GI50 [34] 2.34 µM | GI50 [35] 0.513 µM | GI50 [36] 0.611 µM | GI50 [37] 3.31 µM | GI50 [38] 17.6 µM | GI50 [39] 1.47 µM | GI50 [40] 21.9 µM | GI50 [41] 0.782 µM | GI50 [43] 4.15 µM | GI50 [44] 0.689 µM | GI50 [45] 1.66 µM | GI50 [46] 1.35 µM | GI50 [47] 12.5 µM | GI50 [48] 12.7 µM | GI50 [49] 1.09 µM | GI50 [50] 13 µM | GI50 [51] 2.05 µM | GI50 [52] 2.34 µM | GI50 [53] 15.8 µM | GI50 [54] 15.4 µM | GI50 [55] 17.6 µM | GI50 [56] 4.85 µM
21.7 µM: TGI [51]
65.1 µM: TGI [40]
56.5 µM: TGI [24]
25.5 µM: TGI [15]
33 µM: TGI [17]
19.8 µM: TGI [2]
67.2 µM: TGI [38]
92.5 µM: TGI [27] | TGI [30]
